Source: US10981894B2, “Melanocortin subtype-2 receptor (MC2R) antagonists and uses thereof” (Crinetics Pharmaceuticals, Inc., priority 2018, dated 2021)

Molecular target: hMC2 receptor (Homo sapiens, UniProt Q01718)
Assay: hMC2 membrane binding assay ([125I]ACTH (1-39) Tyr23, SPA)
Parameters: scale not given here
Settings: crude hMC2R membranes from CRE-bla-CHO-K1 cells expressing hMC2 receptor and hMRAP; [125I]ACTH (1-39) Tyr23 0.2 nM; 1.5 hours at room temperature; read-out: MC2R binding potency
Method: Crude membrane fractions are prepared from CRE-bla-CHO-K1 cells stably expressing hMC2 receptor and hMRAP accessory protein (Thermo Fisher). The cells are grown to 85-100% confluence on standard tissue culture dishes in GlutaMax DMEM growth media (Gibco) with following additives: 10% dialyzed FBS (Gemini), 0.1 mM NEAA (Gibco), 25 mM HEPES (Gibco), 5 μg/mL blasticidin (Goldbio), 100 μg/mL zeocin (Invitrogen), 600 μg/mL hygromycin (Goldbio). To prepare membranes, cells are scraped and collected in 1× Dulbecco's phosphate buffered saline (Corning) and then pelleted at 1000 RPM's. The cell pellet is reconstituted in membrane preparation buffer (20 mM HEPES, 6 mM MgCl2 and 1 mM EGTA, protease inhibitor tablets (Pierce) adjusted to pH 7.4), homogenized using a dounce homogenizer, and the resulting membrane fraction is pelleted by centrifugation at 12,000 RPM's. The membrane pellet is resuspended in membrane preparation buffer, snap freezed and stored at −80° C. for later use.
Binding Assay for hMC2 Antagonists Protocol:
The hMC2 membrane binding assay utilizes the following components: radiolabel [^125I]ACTH (1-39) Tyr23 (PerkinElmer), wheatgerm agglutinin coated PVT SPA beads (PerkinElmer), crude hMC2R membranes, and compounds. Briefly hMC2R membranes are incubated with SPA beads in binding assay buffer (50 mM HEPES, 5 mM MgCl2, 1 mM CaCl2, 0.2% BSA, protease inhibitor tablets (Pierce) adjusted to pH7.4) prior to assay initiation. A dose response of compound (the final concentration of compound are typically 0-10,000 nM), SPA membranes, and [^125I]ACTH (1-39) Tyr23 at a final concentration of 0.2 nM is plated in a 96-well assay plate and allowed to incubate 1.5 hours at room temperature. Assay plates are read using a Top Count NXT and Ki values for compounds are determined using a GraphPad Prism 6 non-linear regression analysis.

Sequence of hMC2 receptor (Q01718 whole entry): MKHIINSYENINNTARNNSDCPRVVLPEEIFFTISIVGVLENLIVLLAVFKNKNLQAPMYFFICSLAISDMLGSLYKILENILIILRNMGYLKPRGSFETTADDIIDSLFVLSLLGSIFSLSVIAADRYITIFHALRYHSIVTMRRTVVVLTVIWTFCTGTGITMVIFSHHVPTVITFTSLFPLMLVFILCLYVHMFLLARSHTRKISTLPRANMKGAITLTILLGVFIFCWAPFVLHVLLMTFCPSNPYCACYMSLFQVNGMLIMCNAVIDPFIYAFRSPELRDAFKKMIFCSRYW
Sequence of hMC2 receptor (Q8TCY5 whole entry partner): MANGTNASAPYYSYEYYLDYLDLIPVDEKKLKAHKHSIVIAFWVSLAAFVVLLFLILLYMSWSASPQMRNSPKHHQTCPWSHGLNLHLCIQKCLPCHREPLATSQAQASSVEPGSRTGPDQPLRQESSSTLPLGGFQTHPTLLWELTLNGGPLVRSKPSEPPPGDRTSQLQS

Ki, < 10 nM:
CCOc1ncccc1-c1ccc(N2CCN(C(=O)c3ccc(Cl)cc3N3CC[C@H](CN)C3)C[C@H]2CC)c(C(=O)NCCN)c1 [Compound 1-40, N-(2-aminoethyl)-2-[(2R)-4-{2-[(3R)-3-(aminomethyl)pyrrolidin-1-yl]-4-chlorobenzoyl}-2-ethylpiperazin-1-yl]-5-(2-ethoxypyridin-3-yl)benzamide]
CCOc1ncccc1-c1ccc(N2CCN(C(=O)C3(C(F)(F)F)CCC3)C[C@H]2CC)c(C(=O)N[C@@H]2CCN(C)C2)n1 [Compound 1-283, 2′-ethoxy-5-[(2R)-2-ethyl-4-[1-(trifluoromethyl)cyclobutanecarbonyl]piperazin-1-yl]-N-[(3R)-1-methylpyrrolidin-3-yl]-[2,3′-bipyridine]-6-carboxamide]
CCOc1ccccc1-c1ccc(N2CCN(C(=O)N3CCc4cc(F)cc(C#N)c43)C[C@H]2CC)c(C(=O)N[C@H]2CCN(C)C2)n1 [Compound 1-426, 3-[(2R)-4-(7-cyano-5-fluoro-2,3-dihydro-1H-indole-1-carbonyl)-2-ethylpiperazin-1-yl]-6-(2-ethoxyphenyl)-N-[(3S)-1-methylpyrrolidin-3-yl]pyridine-2-carboxamide]
CCOc1ccccc1-c1ccc(N2CCN(C(=O)C3(CC(F)(F)F)CCC3)C[C@H]2CC)c(C(=O)N[C@@H]2CCN(C)C2)n1 [Compound 1-349, 6-(2-ethoxyphenyl)-3-[(2R)-2-ethyl-4-[1-(2,2,2-trifluoroethyl)cyclobutanecarbonyl]piperazin-1-yl]-N-[(3R)-1-methylpyrrolidin-3-yl]pyridine-2-carboxamide]
CCOc1ncccc1-c1ccc(N2CCN(C(=O)c3cc(Cl)sc3Cl)C[C@H]2CC)c(C(=O)N[C@@H]2CCN(C)C2)n1 [Compound 1-378, 5-[(2R)-4-(2,5-dichlorothiophene-3-carbonyl)-2-ethylpiperazin-1-yl]-2′-ethoxy-N-[(3R)-1-methylpyrrolidin-3-yl]-[2,3′-bipyridine]-6-carboxamide]
CCOc1ncccc1-c1ccc(N2CCN(C(=O)c3ccc(Cl)cc3C(F)(F)F)C[C@H]2CC)c(CNC)n1 [Compound 2-16, ({5-[(2R)-4-[4-chloro-2-(trifluoromethyl)benzoyl]-2-ethylpiperazin-1-yl]-2′-ethoxy-[2,3′-bipyridin]-6-yl}methyl)(methyl)amine]
CCOc1ccccc1-c1ccc(N2CCN(C(=O)C3(C(F)(F)F)CCCC3)C[C@H]2CC)c(C(=O)NC2CN(C)C2)n1 [Compound 1-399, 6-(2-ethoxyphenyl)-3-[(2R)-2-ethyl-4-[1-(trifluoromethyl)cyclopentanecarbonyl]piperazin-1-yl]-N-(1-methylazetidin-3-yl)pyridine-2-carboxamide]
CCOc1ncccc1-c1ccc(N2CCN(C(=O)c3ccc(NC)nc3C(F)(F)F)C[C@H]2CC)c(C(=O)NCCNC)c1F [Compound 1-163, 3-(2-ethoxypyridin-3-yl)-6-[(2R)-2-ethyl-4-[6-(methylamino)-2-(trifluoromethyl)pyridine-3-carbonyl]piperazin-1-yl]-2-fluoro-N-[2-(methylamino)ethyl]benzamide]
CCOc1ncccc1-c1ccc(N2CCN(C(=O)c3ccc(F)cc3C(F)(F)F)C[C@H]2CC)c(C(=O)NCCNC)n1 [Compound 1-136, 2′-ethoxy-5-[(2R)-2-ethyl-4-[4-fluoro-2-(trifluoromethyl)benzoyl]piperazin-1-yl]-N-[2-(methylamino)ethyl]-[2,3′-bipyridine]-6-carboxamide]
CCOc1ccccc1-c1ccc(N2CCN(C(=O)[C@H]3CC[C@@H](C(F)(F)F)CC3)C[C@H]2CC)c(C(=O)N[C@@H]2CCN(C)C2)n1 [Compound 1-336, 6-(2-ethoxyphenyl)-3-[(2R)-2-ethyl-4-[cis-4-(trifluoromethyl)cyclohexanecarbonyl]piperazin-1-yl]-N-[(3R)-1-methylpyrrolidin-3-yl]pyridine-2-carboxamide]
